Results on 3 compounds are retold here after ChEMBL document CHEMBL1145519, “Exploitation of structural and regulatory diversity in glutamate racemases” (Nature, 2007).

Test [1] can be described thus: Inhibition of MurI in Staphylococcus aureus.
The test system of the next test is Staphylococcus aureus. The test can be described thus: Antimicrobial activity against Staphylococcus aureus. The format is functional.
Test [2] can be described thus: Inhibition of MurI in Escherichia coli.
Test [3] concerns the target T1, Glutamate racemase (Helicobacter pylori (strain ATCC 700392 / 26695) (Campylobacterpylori), UniProt P56068).
T1 sequence (P56068 whole entry): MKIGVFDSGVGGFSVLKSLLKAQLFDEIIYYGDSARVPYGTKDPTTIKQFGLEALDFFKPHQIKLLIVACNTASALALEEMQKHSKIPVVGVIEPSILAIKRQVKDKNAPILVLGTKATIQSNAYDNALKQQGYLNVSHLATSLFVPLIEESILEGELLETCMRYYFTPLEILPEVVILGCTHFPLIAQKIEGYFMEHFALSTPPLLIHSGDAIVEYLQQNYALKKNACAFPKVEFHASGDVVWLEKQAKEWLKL
Kind of test: Binding affinity to Helicobacter pylori MurI by protein fluorescence binding assay.

The test system of a further test is Escherichia coli. The test can be described thus: Antimicrobial activity against Escherichia coli. The format is functional.
Test [4] concerns the target T1, Glutamate racemase. The test can be described thus: Inhibition of Helicobacter pylori glutamate racemase.
The next test deals with Helicobacter pylori. Kind of test: Antimicrobial activity against Helicobacter pylori. The format is functional.
The next test relates to Streptococcus pneumoniae. Kind of test: Antimicrobial activity against Streptococcus pneumoniae. It is filed as functional.
In test [5] the target is T2, Glutamate racemase (Streptococcus pneumoniae serotype 4 (strain ATCC BAA-334 / TIGR4), UniProt P63640).
T2 sequence (P63640 whole entry): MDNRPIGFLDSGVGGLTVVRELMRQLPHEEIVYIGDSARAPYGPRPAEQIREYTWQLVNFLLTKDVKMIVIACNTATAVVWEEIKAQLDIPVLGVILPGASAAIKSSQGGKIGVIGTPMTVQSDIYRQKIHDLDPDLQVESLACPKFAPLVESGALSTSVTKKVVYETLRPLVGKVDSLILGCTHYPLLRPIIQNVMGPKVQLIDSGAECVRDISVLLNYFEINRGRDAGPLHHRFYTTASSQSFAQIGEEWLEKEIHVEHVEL
Kind of test: Inhibition of MurI in Streptococcus pneumoniae.

Test [6] has as its target T1, Glutamate racemase. Kind of test: Binding affinity to Helicobacter pylori MurI by isothermal titration calorimetry.
The target in test [7] is Glutamate racemase (Helicobacter pylori (strain ATCC 700392 / 26695) (Campylobacterpylori), UniProt P56068, A75T). Kind of test: Inhibition of Helicobacter pylori MurI A75T mutant.
Chain of Glutamate racemase (Helicobacter pylori (strain ATCC 700392 / 26695) (Campylobacterpylori), UniProt P56068, A75T) (P56068 whole entry A75T): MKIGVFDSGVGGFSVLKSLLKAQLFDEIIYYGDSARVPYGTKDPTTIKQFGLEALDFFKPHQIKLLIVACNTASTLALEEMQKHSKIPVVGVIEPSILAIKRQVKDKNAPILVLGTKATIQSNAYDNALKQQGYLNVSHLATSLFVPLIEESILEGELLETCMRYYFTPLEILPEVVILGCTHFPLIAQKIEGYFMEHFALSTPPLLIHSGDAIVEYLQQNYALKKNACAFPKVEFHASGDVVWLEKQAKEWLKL
In test [8] the target is Glutamate racemase (Helicobacter pylori (strain ATCC 700392 / 26695) (Campylobacterpylori), UniProt P56068, E151K). The test can be described thus: Inhibition of Helicobacter pylori MurI E151K mutant.
Chain of Glutamate racemase (Helicobacter pylori (strain ATCC 700392 / 26695) (Campylobacterpylori), UniProt P56068, E151K) (P56068 whole entry E151K): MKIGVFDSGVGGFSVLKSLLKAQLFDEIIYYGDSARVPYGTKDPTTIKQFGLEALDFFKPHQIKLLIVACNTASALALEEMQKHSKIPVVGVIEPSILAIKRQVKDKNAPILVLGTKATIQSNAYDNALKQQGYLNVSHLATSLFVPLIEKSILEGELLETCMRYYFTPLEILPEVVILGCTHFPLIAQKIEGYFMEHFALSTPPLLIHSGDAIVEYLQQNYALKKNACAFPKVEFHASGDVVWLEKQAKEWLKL

Converted amounts (≈) assume the structure as drawn.

As for `Cn1cc(C#N)cc1-c1c2c(=O)n(C)c(=O)n(CC3CC3)c2nn1Cc1ccnc2ccc(Cl)cc12`, the IC50 in [1] is more than 400 µM; in test [2], more than 400 µM; at Glutamate racemase [4], 0.025 µM; against Glutamate racemase [5], more than 400 µM. The MIC against Staphylococcus aureus was more than 64 µg/mL; against Escherichia coli, more than 64 µg/mL; against Helicobacter pylori, 0.5 µg/mL (≈ 1 µM); against Streptococcus pneumoniae it was more than 64 µg/mL. The same compound registered a Kd on Glutamate racemase [3] of 0.025 µM.

On to `CC(C)Cn1c(=O)n(C)c(=O)c2c(-c3ccncc3)n(Cc3cccc4ccccc34)nc21`, for which the IC50 was more than 400 µM in test [1], more than 400 µM in test [2], 1.4 µM against Glutamate racemase [4] and more than 400 µM on Glutamate racemase [5]. The Kd stood at 2.9 µM on Glutamate racemase [6] and 3.9 µM on Glutamate racemase [3]. Further, the MIC against Staphylococcus aureus was more than 64 µg/mL; against Escherichia coli, more than 64 µg/mL; against Helicobacter pylori it was 4 µg/mL (≈ 9.1 µM); against Streptococcus pneumoniae, more than 64 µg/mL.

For `N[C@H](CCC(=O)O)C(=O)O` [D-GLUTAMATE], the Ki is 661 µM on Glutamate racemase [7], more than 100000 µM on Glutamate racemase [8] and 5.8 µM on Glutamate racemase [4].
